Counter-ions that a name gives are not always drawn.

Here are results for 22 molecules from patent US5039706A, “Antiinflammatory PLA2 inhibitors” (Du Pont Merck Pharmaceutical Company, priority 1989, dated 1991).

The assay has as its system inflammation induced by tetradecanoyl phorbol acetate (TPA). Kind of assay: TPA inflammation inhibition test (mouse ear edema). It is filed as in vivo, mice. Also noted: dose or concentration left out as unconfirmed. The settings on record: topical, 4 h, TPA to right ear, edema measured four hours later, read-out: % Inhibition of Control Swelling. An excerpt: One such model is the inflammation induced by tetradecanoyl phorbol acetate (TPA), modified from the method of Kuehl et al., Nature, 1977, 265, 170; and Van Arman, Clin. Pharmacol. Ther., 1974, 16, 900. The TPA model mimics many of the inflammatory changes which occur in human skin diseases such as psoriasis, since elevated levels of inflammatory arachidonic acid metabolites are found and an influx of polymorphonuclear leukocytes is observed. The test procedure used to evaluate the compounds of Formula (I) is as follows: the test compound […] is applied to both ears of mice in an appropriate vehicle, such as acetone, and then the inflammatory stimulus (TPA) is applied to the right ear. Four hours later, the edema is measured by removing standard size discs from the ears using a biopsy punch. A control group of animals receives TPA in vehicle applied to the right ear, and vehicle alone to the left ear. The weights of the ear discs are determined, and the suppression of swelling observed in animals treated with the test compound is determined.
Turning to `NC(CCCSc1ccc(F)cc1)c1ccc(F)cc1` (stereo not drawn) [Example 44, 4-Fluoro-α-[3-(4-Fluorophenylthio)propyl]benzenemethanamine Hydrochloride], the inhibition in vivo was determined as 25%.
Take `CCCCCCCCSCCCC(N)c1ccc(F)cc1` (stereo not drawn) [Example 5, 4-Fluoro-α-[3-(octylthio)propyl]benzenemethanamine Hydrochloride]: the inhibition in vivo worked out at 46%.
For the molecule `CCCCCCCNCCC(N)c1ccc(F)cc1` (stereo not drawn) [Example 26, 4-Fluoro-α-[2-heptylamino)ethyl]benzenemethanamine Dihydrochloride], the inhibition in vivo turned out to be 52%.
Then `NC(CCCSc1ccccc1)c1ccc(F)cc1` (stereo not drawn) [Example 38, 4-Fluoro-α-(3-phenylthiopropyl)benzenemethanamine Hydrochloride], with 30%; and `CCCCCCC(C)OCCCC(N)c1ccc(F)cc1` (stereo not drawn) [Example 61, 4-Fluoro-α-[3-(2-octyloxy)propyl]benzenemethanamine], with 25%; and `Cc1ccc(SCCCC(N)c2ccc(F)cc2)cc1` (stereo not drawn) [Example 7, 4-Fluoro-α-[3-(4-methylphenylthio)propyl]benzenemethanamine Hydrochloride], with 22%.
For the molecule `CCCCCCCCCCCNCCC(N)c1ccc(F)cc1` (stereo not drawn) [Example 27, 4-Fluoro-α-[2-undecylamino)ethyl]benzenemethanamine Dihydrochloride], the inhibition in vivo is 51%.
Turning to `COc1ccc(CNCCC(N)c2ccc(F)cc2)c2ccccc12` (stereo not drawn) [Example 22, 4-Fluoro-α-(2-[(4-methoxynaphthalenyl)methylamino]ethyl)benzenemethanamine Dihydrochloride], the inhibition in vivo was determined as 26%.
Take `CC(NCCC(N)c1ccc(Cl)cc1)C12CC3CC(CC(C3)C1)C2` (stereo not drawn) [Example 36, 4-Chloro-α-(2-[1-(3-adamantyl)ethylamino]ethyl)benzenemethanamine Dihydrochloride]: the inhibition in vivo worked out at 48%.
Then `CC1(C)C2CCC(CNCCC(N)c3ccc(F)cc3)C1C2` (stereo not drawn) [Example 30, α-[2-(7,7-Dimethylbicyclo[3,1,1]heptyl-2-methylamino)ethyl]-4-fluoro-benzenemethanamine Dihydrochloride], with 34%; and `CC1(C)C2CCC(CNCCC(N)c3ccc(F)cc3)C1C2` (single isomer, unassigned) [Example 11, 4-Fluoro-α-(2-[(1α,2α,5α-7,7-dimethylbicyclo[3.1.1]-heptanyl-2-methyl)amino]ethyl)benzenemethanamine Dihydrochloride], with 45%; and `CC(C)c1ccc2c(c1)CCC1C(C)(CNCCC(N)c3ccc(F)cc3)CCCC21C` (stereo not drawn) [Example 1, α-(2-[1,4a-Dimethyl-7-(2-propyl)-1,2,3,4,4a,9,10,10a-octahydro-1-phenanthrenylmethylamino]ethyl)-4-fluorobenzenemethanamine Dihydrochloride], with 89%.
As for `CCCCCCNCCC(N)c1ccc(F)cc1` (stereo not drawn) [Example 28, 4-Fluoro-α-[2-(hexylamino)ethyl]benzenemethanamine Dihydrochloride], the inhibition in vivo amounted to 51%.
Turning to `CC(NCCC(N)c1ccc(F)cc1)C12CC3CC(CC(C3)C1)C2` (stereo not drawn) [Example 39, 4-Fluoro-α-(2-[1-(3-adamantyl)ethylamino]ethyl)benzenemethanamine Dihydrochloride], the inhibition in vivo came out at 50%.
For the molecule `CC(C)c1ccc2c(c1)CCC1C(C)(CNCCC(N)c3ccccc3)CCCC21C` (stereo not shown) [Example 56, Dihydrochloride], the inhibition in vivo amounted to 64%.
As to `COc1ccc(C(N)CCNCC2(C)CCCC3(C)c4ccc(C(C)C)cc4CCC23)cc1` (stereo not drawn) [Example 57, α-(2-[1,4a-Dimethyl-7-(2-propyl)-1,2,3,4,4a,9,10,10a-octahydro-1-phenanthrenylmethylamino]ethyl)-4-methoxybenzenemethanamine Dihydrochloride], the inhibition in vivo is 60%.
Take `CC(C)c1ccc2c(c1)CCC1C(C)(CNCCCC(N)c3ccc(F)cc3)CCCC21C` (stereo not drawn) [Example 8, 4-Fluoro-α-(4-[1,4a-dimethyl-7-(2-propyl)-1,2,3,4,4a,9,10,10a-octahydro-1-phenanthrenylmethylamino]propyl)-benzenemethanamine Dihydrochloride]: the inhibition in vivo was found to be 50%.
With `CC(C)(C)CC(C)(C)NCCC(N)c1ccc(F)cc1` (stereo not drawn) [Example 34, 4-Fluoro-α-[2-(1,1,3,3-tetramethylbutyl)aminoethyl]benzenemethanamineDihydrochloride], the inhibition in vivo was 22%.
The same measure for `CCCCCCCCCCCCCCCCCCNCCC(N)c1ccc(F)cc1` (stereo not drawn) [Example 42, 4-Fluoro-α-[2-(octadecylamino)ethyl]benzenemethanamine Dihydrochloride]: 22%.
Turning to `NC(CCNCCc1cccc2ccccc12)c1ccc(F)cc1` (stereo not drawn) [Example 40, 4-Fluoro-α-(2-[2-(1-naphthalenyl)ethylamino]ethyl)benzenemethanamine Dihydrochloride], the inhibition in vivo is 29%.
For `CCCCCCCCNCCC(N)c1ccc(F)cc1` (stereo not drawn) [Example 21, 4-Fluoro-α-[2-(octylamino)ethyl]benzenemethanamine Dihydrochloride], the inhibition in vivo is 68%.
The same measure for `NC(CCCSc1ccncc1)c1ccc(F)cc1` (stereo not drawn) [Example 10, 4-Fluoro-α-[3-(4-pyridinylthio)propyl]benzenemethanamine Dihydrochloride]: 24%.
